Key:
[1] = tested on: cultured DRG neurons (transected axons); assay: Axon degeneration after transection of axons of cultured DRG neurons (Wallerian degeneration); format: cell-based; conditions: sirturin inhibitors; nicotinamide at 50 μM
Experimental: As a first step in examining the role of NAD in Wallerian degeneration, we used an ultra-sensitive high-performance liquid chromatography (HPLC) method (Micheli and Sestini, 1997) to measure the concentration of NAD and its derivatives in degenerating axons. To do this, the acidic lysates were prepared from axonal segments collected at different time points after transecting the axons from cultured dorsal root ganglia (DRG) and resolved by reverse-phase chromatography. 2 hr after axotomy, when the transected axons were still morphologically indistinguishable from their uncut controls, NAD levels began to decrease. This NAD decrease continued over the course of degeneration, reaching about 50% at 4 hr post-axotomy, to almost undetectable levels by 6 hr after axotomy, when early morphological signs of degeneration began to develop. […] By a similar approach of alkaline extraction (Micheli and Sestini, 1997), it has been difficult for us to detect NADH in the axonal extracts, presumably due to the low abundance of NADH and the high NAD/NADH ratio reported in mammalian cells (Zhang et al., 2002, Kasischke et al., 2004, Kannurpatti et al., 2004).
To definitively determine whether preventing the local decrease in NAD levels could mediate axon protection, we employed soma-free axonal segments that have been separated from their soma as models to examine the protective effects of different pharmacological treatments. It has been shown that exogenously provided NAD, when directly added to the culture medium of DRG neurons, can be transported across the axonal membrane (Araki et al., 2004). Thus, we first examined the protective effects of different concentrations of NAD added to the culture before or after axon transection and removal of ganglia.
To further assess the local and nuclear contribution to such an NAD-dependent protection, we compared the protective effects of NAD provided at different time points. […] In this respect, our results are inconsistent with those shown by Araki et al (2004), possibly due to the different concentrations of NAD used in our studies (1-20 mM) and by Araki et al (0.1 to 1 mM).
We next attempted to explore the possible mechanisms underlying this local NAD-dependent axon protection. […] A possible explanation for this discrepancy between Araki et al (2004) and our results is the different approaches used to block Sirt1 activity. […] It is known that […], other sirturins exist and some of these proteins are localized in the cytoplasmic compartment (Onyango et al., 2002; North et al., 2003).

[2] = tested on: experimental autoimmune encephalomyelitis (EAE) mice; format: in vivo
Source text: EAE is an inflammatory, demyelinating disease that can be induced by immunizing animals against myelin antigens, and is an accepted animal model for multiple sclerosis (MS) as it has similarities based on both the histopathology and the clinical course of the affected animals. In methods adapted from Lo et al. (J Neurophysiol. 2003 November;90(5):3566-71) we examine the effect of nicotinamide on axonal degeneration within the dorsal columns (cuneate fasciculus) and dorsal corticospinal tracts of the spinal cord.
Induction of EAE. Experiments are carried out in accordance with National Institutes of Health guidelines for the use of laboratory animals. C57/BL6 mice 6-10 wk of age are injected subcutaneously with 200 μl of an emulsion of 300 μg of rat myelin oligodendrocyte glycoprotein (MOG) 35-55 peptide (Keck Biotechnology Center, Yale University) in incomplete Freund's adjuvant (IFA, Sigma, St. Louis, Mo.) supplemented with 250-500 μg of Mycobacterium tuberculosis H37Ra (Difco, Detroit, Mich.). The MOG injection, with mycobacterium supplemented IFA, is repeated in the opposite flank 1 wk later. The mice also receive an injection of 250-500 ng pertussis toxin (Sigma) in 200 μl PBS ip immediately after the first immunization with MOG and then again 48 h later.
Nicotinamide treatment. Beginning on day 10 after the initial MOG injection, control and EAE-induced mice are fed pelleted mice chow incorporating nicotinamide (Sigma) to achieve an average daily consumption of 500 mg/kg nicotinamide. A separate group of EAE mice are fed the identical standard mice chow not containing nicotinamide. Serum nicotinamide levels are measured by HPLC (Chatzimichalakis et al, J Sep Sci. (2004) 27:1181-8) from two mice in each group on day 14 and on the day of either perfusion (days 27-28) or electrophysiological study (days 24-30).
Mice are observed daily for clinical signs and scored on a 0-6 scale, with 0.5 gradations for intermediate scores, as follows: 0, normal without clinical signs; 1, flaccid tail; 2, abnormal righting reflex; 3, partial hindlimb paralysis; 4, complete hindlimb paralysis; 5, moribund; and 6, death.
Electrophysiological recordings. Fourteen adult male C57/BL6 mice are used for assessing spinal cord conduction. Untreated EAE (n=6) and nicotinamide-treated EAE (n=4) mice are studied between days 24 and 30 and age-matched nicotinamide-treated mice (n=4) are used as controls. Mice are anesthetized with halothane, and deep anesthesia is maintained with 1.1% halothane through a tracheal cannula by artificial ventilation (75-80 strokes/min, 0.7 ml/stroke) and verified by the absence of a withdrawal reflex to noxious peripheral pinch. Heartbeats (˜360 beats/min) and body temperature are carefully monitored. Mice are fixed in a stereotaxic apparatus (Kopf Instruments). A midline incision is made through the skin, a laminectomy is performed, and the dura is carefully cut to expose the lower thoracic and lumbar spinal cord regions. Silver wire electrodes (0.01-in diam, A-M Systems) insulated except at the tips are used for stimulation of dorsal column axons at L4-5 and recording of compound action potentials (CAP) at T11-12. Using stereotaxic measurements, the electrodes are positioned 8 mm apart at the surface of the midline spinal cord. Pancuronium bromide (0.3 mg/kg, Sigma) is injected ip to prevent further muscular contractions throughout the experiment. The signal from the recording electrode is amplified with filters set at 300-3,000 Hz (Dam 80, WPI) and collected (CED 1401, Cambridge Electronic Design), and a computer is used for data analysis (Spike 2 program, Cambridge Electronic Design). Single-current pulses (0.05 ms) are applied through a stimulus isolation unit (A365, WPI, and Master-8, AMPI) in increments (0.2, 0.3, 0.6, 0.8, and 1 mA). The amplitude of CAP is calculated as the value between the positive and negative peaks of the biphasic wave. […]

[3] = nicotinamide-treated EAE, days 24-30

NC(=O)c1cccnc1 [nicotinamide, 3-pyridinecarboxamide]
attenuation of the protective effect of Nmnat1 or NAD [1]: did not attenuate the protective effect
effect on dorsal corticospinal column and dorsal column (cuneate fasciculus) axons ([2]; EAE mice, 27-28 days): significant protective effect
clinical course versus untreated EAE mice ([2]; EAE mice, chow 500 mg/kg daily from day 10): less severe clinical course
clinical score (0-6 scale) ([2]; EAE mice, chow 500 mg/kg daily from day 10, day 27-28 (untreated EAE 3-4)): 1-2
clinical signs in nicotinamide-treated control mice ([2]; mouse, in vivo): do not display any pathological clinical signs
difference in density of neurofilament-labeled axons, untreated versus nicotinamide-treated controls ([2]; mouse, in vivo): not significant
average CAP amplitude and area versus nicotinamide-treated control group [2, 3]: not significantly different
conduction velocity [2, 3]: maintained close to normal levels

Reference: patent publication US20060211744A1, “3-Pyridinecarboxamide reduces nerve degeneration” (Children's Medical Center, priority 2005, published 2006)
